Results on four compounds are retold here after patent US20230124862A1, “BISMUTH THIOL COMPOUNDS AND COMPOSITIONS AND METHODS OF TREATING MICROBIAL CO-INFECTIONS” (Microbion Corporation, priority 2020, published 2023).

≈ marks a conversion by molar mass, not a printed value. Where “and” joins values, the source holds several entries; their conditions need not be identical. Equal entries are not always repeated. Where two headings read alike, the source gives them in different places. Starred links: 1 amine or outer side, 2 acyl side, 3 side chain; linkers in the order of their positions; H or OH if unused. Positions of bridges follow the written chain, without caps; N, C: chain ends. Non-standard residues stand in square brackets, D forms with d. Residues, ends and D or L forms follow the SMILES beside them. *: point of attachment. hTyr(3S-OH,4S-OH,3'-OSO3H) = N[C@H](C(=O)O)[C@H](O)[C@@H](O)c1ccc(O)c(OS(=O)(=O)O)c1; Orn(4R-OH,5R-OH) = O=C([C@H](C[C@@H](O)[C@@H](O)N[*:3])N[*:1])[*:2]; Pro(3S-OH,4S-Me) = C[C@H]1CN[C@H](C(=O)O)[C@H]1O; X1 = CCCCCOc1ccc(-c2cc(-c3ccc(C(=O)*)cc3)no2)cc1; Gln(3R-OH) = NC(=O)C[C@@H](O)[C@H](N)C(=O)O; Hyp = O=C(O)[C@@H]1C[C@@H](O)CN1

What is called MIC is the smallest concentration in the dilution series that meets the test's criterion for growth inhibition.

For experiment [1], the system named is S. aureus ATCC 29213. The note with it: control strain ATCC 29213; cited from earlier work.
Experiment [2] relates to Enterobacteriaceae. The following applies: E. coli MMX 102 (ATCC 25922); CLSI QC ranges shown in parenthesis; cited from earlier work.
In experiment [3] the test system is P. aeruginosa and A. baumannii. The experiment in a line: Broth microdilution MIC (Example 11). It is filed as cell-based, Pseudomonas aeruginosa, Acinetobacter baumannii. In general terms: Broth dilution looks for growth in wells or tubes with falling amounts of substance.
The next experiment has as its system Enterococcus spp. As to the kind of experiment: Broth microdilution MIC (Example 11). The following applies: Lev^R Cip^R Ery^R. It is filed as cell-based, E. faecalis, E. faecium.
Experiment [4] deals with S. aureus. The following applies: S. aureus MMX 101 (ATCC 29213); cited from earlier work.
The subject of experiment [5] is Enterobacteriaceae. As to the kind of experiment: Broth microdilution MIC (Example 11). It is filed as cell-based, E. coli, K. pneumoniae, Enterobacter cloacae.
The test system of experiment [6] is P. aeruginosa and A. baumannii. The following applies: P. aeruginosa MMX 103 (ATCC 27853); CLSI QC ranges shown in parenthesis; cited from earlier work.
Experiment [7] concerns S. aureus. The experiment in a line: Broth microdilution MIC (Example 11). It is filed as cell-based, Staphylococcus aureus.
In experiment [8] the test system is Candida krusei. The experiment in a line: Antifungal broth microdilution (Example 13). It is filed as cell-based.
Experiment [9] relates to S. aureus ATCC 29213. As to the kind of experiment: MIC control strain. The following applies: QC organism, Example 13.
For a further experiment, the system named is Aspergillus spp. The experiment in a line: Antifungal broth microdilution (Example 13). Type of experiment: cell-based, A. niger, A. terreus, A. fumigatus, A. flavus.
Experiment [10] concerns C. parapsilosis ATCC 22019. The following applies: cited from earlier work.
Experiment [11] relates to C. parapsilosis ATCC 22019. The experiment in a line: Antifungal broth microdilution (Example 13), QC organism. It is filed as cell-based, Candida parapsilosis. The following applies: comparators, single value.
The test system of experiment [12] is Candida krusei. The following applies: C. krusei ATCC 6258, CLSI established QC range, cited from earlier work.
A further experiment deals with E. coli ATCC 25922. As to the kind of experiment: MIC control strain. The following applies: QC organism, Example 13.

Turning to `CC[C@H]1OC(=O)[C@H](C)[C@@H](O[C@H]2C[C@@](C)(OC)[C@@H](O)[C@H](C)O2)[C@H](C)[C@@H](O[C@@H]2O[C@H](C)C[C@H](N(C)C)[C@H]2O)[C@](C)(OC)C[C@@H](C)C(=O)[C@H](C)[C@@H](O)[C@]1(C)O` [Clarithromycin, reference compound], the “Expected MIC: goal (acceptable range)” value in the experiment with S. aureus ATCC 29213 [1] is given as 0.25 (0.12-0.5) mcg/mL.
For Gentamicin, the results for the “MIC, CLSI QC range” value (with Enterobacteriaceae [2]; in [6]) were “(0.25-1) μg/mL” and “(0.5-2) μg/mL”, respectively. In addition, the MIC was above 64 µg/mL in [3] (A. baumannii MMX 2592, MDR, Lev^R Cip^R MEM^R CAZ^R Gm^R); above 64 µg/mL in experiment [3] (A. baumannii MMX 2593, MDR, Lev^R Cip^R MEM^R CAZ^R Gm^R); 0.5 µg/mL in experiment [3] (A. baumannii MMX 3372, MDR, Cip^R MEM^1 CAZ^1); 0.12 µg/mL in experiment [3] (A. baumannii MMX 3373, Sensitive); 8 µg/mL in experiment [3] (A. baumannii MMX 4651 (NCTC 13304), MDR: OXA-27, Lev^R Cip^R MEM^R CAZ^R Gm^1); 1 µg/mL in experiment [3] (P. aeruginosa MMX 103 (ATCC 27853), QC). The MIC in experiment [3] (P. aeruginosa MMX 1381, MDR, Lev^R Cip^R MEM^R CAZ^R) was 8 µg/mL; in [3] (P. aeruginosa MMX 2562, MDR, Lev^R Cip^R MEM^R CAZ^R), 8 µg/mL; in experiment [3] (P. aeruginosa MMX 3991, MDR, Lev^R Cip^R MEM^R CAZ^R), 4 µg/mL; in experiment [3] (P. aeruginosa MMX 4654, IMP-7, Lev^R Cip^R MEM^R CAZ^R) it was above 64 µg/mL; in experiment [3] (P. aeruginosa MMX 4697, VIM-2, Lev^R Cip^R MEM^R CAZ^R), 4 µg/mL; in the experiment with Enterococcus spp. (E. faecalis MMX 8960, VRE) it was above 64 µg/mL. In addition, the minimal inhibitory concentration (MIC) was 8 µg/mL with Enterococcus spp. (E. faecalis MMX 8961, VRE); above 64 µg/mL in the experiment with Enterococcus spp. (E. faecalis MMX 8962, VRE); above 64 µg/mL in the experiment with Enterococcus spp. (E. faecium MMX 485, VRE vanA); above 64 µg/mL with Enterococcus spp. (E. faecium MMX 752, VRE vanA); above 64 µg/mL against Enterobacteriaceae [5] (E. cloacae MMX 5981 (ATCC BAA-2468), NDM-1, Lev^R MEM^R CAZ^R Gm^R); 1 µg/mL in the experiment with Enterobacteriaceae [5] (E. coli MMX 102 (ATCC 25922), QC). The minimum inhibitory concentration (MIC) with Enterobacteriaceae [5] (E. coli MMX 5980 (ATCC BAA-2469), NDM-1, Lev^R MEM^R CAZ^R Gm^R) is above 64 µg/mL; in the experiment on Enterobacteriaceae [5] (E. coli MMX 8423, ESBL, Lev^R CAZ^R Gm^R), 64 µg/mL; in the experiment with Enterobacteriaceae [5] (E. coli MMX 8424, ESBL, CAZ^R), 0.25 µg/mL; in the experiment with Enterobacteriaceae [5] (E. coli MMX 8425, ESBL, Lev^R CAZ^R Gm^R), above 64 µg/mL; in the experiment with Enterobacteriaceae [5] (K. pneumoniae MMX 4622, KPC-2, MEM^R CAZ^R), 0.25 µg/mL; in the experiment on Enterobacteriaceae [5] (K. pneumoniae MMX 4623, KPC-2, MEM^R CAZ^R Gm^R), 64 µg/mL. Also, the MIC is 1 µg/mL in the experiment on Enterobacteriaceae [5] (K. pneumoniae MMX 4653, KPC-3, Lev^R MEM^R CAZ^R); 1 µg/mL with Enterobacteriaceae [5] (K. pneumoniae MMX 4683, KPC-2, Lev^R MEM^R CAZ^R); 0.25 µg/mL with Enterobacteriaceae [5] (K. pneumoniae MMX 4684, ESBL, MEM^R); 1 µg/mL in the experiment with Enterobacteriaceae [5] (K. pneumoniae MMX 4685, ESBL, Lev^R MEM^R CAZ^R); 8 µg/mL against Enterobacteriaceae [5] (K. pneumoniae MMX 4694, KPC-3, Lev^R MEM^R CAZ^R); above 64 µg/mL with Enterobacteriaceae [5] (K. pneumoniae MMX 5979, NDM-1, Lev^R MEM^R CAZ^R Gm^R). Also, the MIC against S. aureus [7] (S. aureus MMX 101 (ATCC 29213), QC, MSSA) stood at 0.12 µg/mL; in the experiment with S. aureus [7] (S. aureus MMX 5373, MRSA, Lev^R Cip^R CC^R Ery^R Ox^R), 0.25 µg/mL; against S. aureus [7] (S. aureus MMX 6311, MRSA, Lev^R Cip^R CC^R Ery^R Ox^R), 0.25 µg/mL; in the experiment on S. aureus [7] (S. aureus MMX 9203, MRSA, Lev^R Cip^R Ery^R Ox^R), 0.12 µg/mL; in the experiment with S. aureus [7] (S. aureus MMX 9204, MRSA, Lev^R Cip^R Ery^R Ox^R), 0.25 µg/mL; in the experiment with S. aureus [7] (S. aureus MMX 9205, MRSA, Lev^R Cip^R CC^R Ery^R Ox^R), 0.25 µg/mL. In the experiment with S. aureus [4], the “CLSI QC range of MIC” value was “(0.12-1) μg/mL”.
On to `CC[C@H](C)C[C@H](C)CCCCCCCCC(=O)N[C@H]1C[C@@H](O)[C@@H](NCCN)NC(=O)[C@@H]2[C@@H](O)CCN2C(=O)[C@H]([C@H](O)CCN)NC(=O)[C@H]([C@H](O)[C@@H](O)c2ccc(O)cc2)NC(=O)[C@@H]2C[C@@H](O)CN2C(=O)[C@H]([C@@H](C)O)NC1=O` [Caspofungin], for which the MIC 24 hr in the experiment with Candida krusei [8] (C. krusei ATCC 6258, 24 hr, comparators, single value) was 0.25 µg/mL (≈ 0.229 µM); against S. aureus ATCC 29213 [9], above 64; in experiment [11], 0.25 µg/mL (≈ 0.229 µM); against E. coli ATCC 25922, above 64. The MIC 48 hr in the experiment with Candida krusei [8] (C. krusei ATCC 6258, 48 hr, comparators, single value) amounted to 0.25 µg/mL (≈ 0.229 µM); in experiment [11], 0.5 µg/mL (≈ 0.457 µM). For the same compound, the “MIC 24 hr (MEC)” value in the experiment with Aspergillus spp. (A. flavus ATCC 204304, 24 hr, MEC) is reported as 0.12 (MEC); against Aspergillus spp. (A. fumigatus ATCC MYA-3626, 24 hr, MEC) it was 0.06 (MEC). Further, the “MIC 48 hr (MEC)” value against Aspergillus spp. (A. flavus ATCC 204304, 48 hr, MEC) is listed as 0.06 (MEC); with Aspergillus spp. (A. fumigatus ATCC MYA-3626, 48 hr, MEC), 0.06 (MEC). For the same compound, the “QC Range 24 hr” value in [10] (C. parapsilosis ATCC 22019, CLSI established QC range, 24 hr) is given as 0.25-1; with Candida krusei [12], 0.12-1. For the same compound, the “QC Range 48 hr” value in experiment [10] (C. parapsilosis ATCC 22019, CLSI established QC range, 48 hr) is 0.5-4; in the experiment with Candida krusei [12], 0.25-2.
Take `CCCCCOc1ccc(-c2cc(-c3ccc(C(=O)N[C@H]4C[C@@H](O)[C@@H](O)NC(=O)[C@@H]5[C@@H](O)[C@@H](C)CN5C(=O)[C@H]([C@H](O)CC(N)=O)NC(=O)[C@H]([C@H](O)[C@@H](O)c5ccc(O)c(OS(=O)(=O)O)c5)NC(=O)[C@@H]5C[C@@H](O)CN5C(=O)[C@H]([C@@H](C)O)NC4=O)cc3)no2)cc1` [Micafungin] (X1-[Orn(4R-OH,5R-OH)]T[Hyp][hTyr(3S-OH,4S-OH,3'-OSO3H)][Gln(3R-OH)][Pro(3S-OH,4S-Me)]; lactam 1-C): the MIC 24 hr against Candida krusei [8] was 0.5 µg/mL (≈ 0.394 µM); in the experiment with S. aureus ATCC 29213 [9], above 64; in [11], 0.5 µg/mL (≈ 0.394 µM); against E. coli ATCC 25922 it was above 64. Further, the MIC 48 hr in the experiment with Candida krusei [8] was 0.5 µg/mL (≈ 0.394 µM); in experiment [11] it was 2 µg/mL (≈ 1.57 µM). In the experiment with Aspergillus spp., the “MIC 24 hr (MEC)” value was 0.06 (MEC) and 0.03 (MEC). Also, the “MIC 48 hr (MEC)” value with Aspergillus spp. was 0.008 (MEC). In addition, the “QC Range 24 hr” value in experiment [10] is recorded as 0.5-2; in the experiment with Candida krusei [12], 0.12-0.5. Further, the entries for the “QC Range 48 hr” value (in experiment [10]; in the experiment with Candida krusei [12]) were 0.5-4 and 0.12-0.5, respectively.
